# What was measured:
# [1] = biological target: T1, BACE1 (Homo sapiens, UniProt P56817); experiment: In Vitro Enzymatic BACE FRET (Fluorescence Resonance Energy Transfer) Assay; type: biochemical
# How it was run: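 Acetate buffer at pH 4.2 with 10% DMSO and 100 uM genapol hosts the enzymatic reaction, initiated by 50 nM FRET substrate and allowed to proceed one hour. Tris quench to neutral pH precedes the fluorescence measurement.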
# [2] = biological target: T1, BACE1; experiment: In Vitro BACE Cell-based Assay (HEK cell assay): Aβ40 in conditioned medium of cells stably expressing Amyloid Precursor Protein, sandwich ELISA
# How it was run: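 First, APP-stable cells grow 24 h at 37° C., 5% CO2. Next, test compounds are added for 24 h (10 doses, 0.1% DMSO). Finally, medium Aβ40 is determined by pAb40/6E10 sandwich ELISA with Europium TRF, and IC50 is calculated.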
# [3] = test system: amyloid beta peptide (A-beta) in cerebrospinal fluid and brain; experiment: In Vivo Inhibition of Beta-Secretase: reduction of A-beta levels in CSF and brain; details: after 4 hrs, mouse or rat
# Text: Several animal models, including mouse, rat, dog, and monkey, may be used to screen for inhibition of beta-secretase activity in vivo following administration of a test compound sample. Animals used in this invention can be wild type, transgenic, or gene knockout animals. […] A separate group of animals receive 2% hydroxypropyl methylcellulose, 1% Tween80 alone, containing no test compound, and serve as a vehicle-control group. At the end of the test period, animals are sacrificed and brain tissues, plasma or cerebrospinal fluid are collected. […] Homogenates are centrifuged at 355,000 g, 4° C. for 30 minutes. CSF or brain supernatants are then analyzed for the presence of A-beta peptide by specific sandwich ELISA assays based on ECL (Electrochemiluminescence) technology. For example, rat Abeta40 is measured using biotinylated-4G8 (Signet) as a capture antibody and Fab40 (an in-house antibody specific to the C-terminal of Abeta40) as a detection antibody.
# [4] = HEK cells, read-out: HEK cell assay
# [5] = Table IV, class symbols, read-out: BACE1 FRET assay
# [6] = Table IV, class symbols, read-out: HEK cell assay
# T1 sequence (P56817 46-501, species assumed): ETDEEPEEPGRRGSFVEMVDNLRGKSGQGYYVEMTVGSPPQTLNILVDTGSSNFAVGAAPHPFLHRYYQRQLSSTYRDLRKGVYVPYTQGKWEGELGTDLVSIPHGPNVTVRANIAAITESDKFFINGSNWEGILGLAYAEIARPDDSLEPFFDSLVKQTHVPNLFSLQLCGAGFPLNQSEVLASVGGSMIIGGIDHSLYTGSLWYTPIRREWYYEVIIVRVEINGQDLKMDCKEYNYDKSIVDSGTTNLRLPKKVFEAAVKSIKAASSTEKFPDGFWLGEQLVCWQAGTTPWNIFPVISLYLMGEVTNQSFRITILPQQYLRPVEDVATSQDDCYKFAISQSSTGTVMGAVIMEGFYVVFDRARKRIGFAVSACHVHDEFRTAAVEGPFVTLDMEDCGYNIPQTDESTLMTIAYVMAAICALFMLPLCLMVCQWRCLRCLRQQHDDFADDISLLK
SMILES,IC50 ([1]; read-out: BACE1 FRET assay),percent reduction in CSF A-beta levels ([3]; 10 mpk),percent reduction in brain A-beta levels ([3]; 10 mpk),also measured
"Cc1cnc(F)c(-c2ccc3c(c2)[C@@]2(COC(N)=N2)c2cc(C4=CCOCC4)ncc2O3)c1 [Example 286, (S)-3-(3,6-dihydro-2H-pyran-4-yl)-7-(2-fluoro-5-methylpyridin-3-yl)-5′H-spiro[chromeno[2,3-c]pyridine-5,4′-oxazol]-2′-amine]",< 0.1 µM,73%,57%,"IC50 [2, 4]: < 0.1 µM"
"NC1=N[C@@]2(CO1)c1cc(-c3cc(Cl)ccc3F)ccc1Oc1ncc(C3=CCOCC3)cc12 [Example 296, (S)-7-(5-chloro-2-fluorophenyl)-3-(3,6-dihydro-2H-pyran-4-yl)-5′H-spiro[chromeno[2,3-b]pyridine-5,4′-oxazol]-2′-amine]",,61%,40%,"IC50 [1, 5]: < 0.1 µM; IC50 [2, 6]: < 0.1 µM"
"NC1=N[C@]2(CO1)c1cc(OCC(F)(F)F)ccc1Oc1ccc(-c3cncnc3)cc12 [Example 58, (4S)-2′-(5-pyrimidinyl)-7′-(2,2,2-trifluoroethoxy)spiro[1,3-oxazole-4,9′-xanthen]-2-amine]",,45%,29%,"IC50 ([1]; Table II, read-out: BACE1 FRET assay): < 0.1 µM; IC50 ([2]; Table II, Aβ40, 24 h incubation, read-out: HEK cell assay): 0.1 to 1 µM"
"NC1=N[C@@]2(CO1)c1cc(-c3cccnc3F)ccc1Oc1cnc(-c3cccnc3)cc12 [Example 517, (5S)-7-(2-fluoro-3-pyridinyl)-3-(3-pyridinyl)spiro[chromeno[2,3-c]pyridine-5,4′-[1,3]oxazol]-2′-amine]",,56%,36%,"IC50 ([1]; BACE1 FRET assay (uM)): < 0.1 µM; IC50 ([2]; HEK cell assay (uM), HEK cells): < 0.1 µM"
"COC(C)(C)C#Cc1cc(F)c2c(c1)[C@]1(COC(N)=N1)c1cc(-c3cncnc3)ccc1O2 [Example 673, (4S)-4′-fluoro-2′-(3-methoxy-3-methyl-1-butyn-1-yl)-7′-(5-pyrimidinyl)spiro[1,3-oxazole-4,9′-xanthen]-2-amine]",< 0.1 µM,,,IC50 ([2]; read-out: HEK cell assay): < 0.1 µM; percent reduction in CSF A-beta levels ([3]; 30 mpk): 81%; percent reduction in brain A-beta levels ([3]; 30 mpk): 63%
"CC(C)(C#N)COc1cc(F)c2c(c1)[C@]1(COC(N)=N1)c1cc(-c3cccnc3F)ccc1O2 [Example 287, (S)-3-(2-amino-5′-fluoro-2′-(2-fluoropyridin-3-yl)-5H-spiro[oxazole-4,9′-xanthene]-7′-yloxy)-2,2-dimethylpropanenitrile]",< 0.1 µM,48%,32%,"IC50 [2, 4]: < 0.1 µM"
"NC1=N[C@@]2(CO1)c1cc(-c3cccnc3)ccc1Oc1ccc(N3CC(F)(F)C3)cc12 [Example 540, (4S)-2′-(3,3-difluoro-1-azetidinyl)-7′-(3-pyridinyl)spiro[1,3-oxazole-4,9′-xanthen]-2-amine]",,40%,7%,"IC50 [1, 5]: < 0.1 µM; IC50 [2, 6]: < 0.1 µM"

# — patent publication US8426447B2, “Spiro-tricyclic ring compounds as beta-secretase modulators and methods of use” (Amgen Inc., priority 2008, dated 2013)
